We go through three compounds from PubChem BioAssay AID1259407 (Chemical Carcinogenesis Research Information System (CCRIS), 2018).

The structures appear in SMILES notation. The source made the active and inactive calls. The rule behind the calls is not given here.

The data set relates to CCRIS mutagenicity, Ames/micronucleus/aberration tests. Kind of data set: CCRIS mutagenicity studies.
The mark [1] stands for this setting: Test System: AMES SALMONELLA TYPHIMURIUM, Strain/Indicator: TA98, Metabolic Activation: NONE, Method: PREINCUBATION
Where [2] appears, read: Test System: AMES SALMONELLA TYPHIMURIUM, Strain/Indicator: TA100, Metabolic Activation: NONE, Method: PREINCUBATION
Where [3] appears, read: Test System: AMES SALMONELLA TYPHIMURIUM, Strain/Indicator: TA1535, Metabolic Activation: NONE, Method: PREINCUBATION
The mark [4] stands for this setting: Test System: AMES SALMONELLA TYPHIMURIUM, Strain/Indicator: TA1537, Metabolic Activation: NONE, Method: PREINCUBATION

As for `O=[N+]([O-])c1ccccc1CCO`, the mutagenic call (Test System: AMES SALMONELLA TYPHIMURIUM, Strain/Indicator: TA98, Metabolic Activation: HAMSTER, LIVER, S-9, AROCLOR 1254 (10%), Method: PREINCUBATION) was “inactive; negative”; the mutagenic call (Test System: AMES SALMONELLA TYPHIMURIUM, Strain/Indicator: TA98, Metabolic Activation: HAMSTER, LIVER, S-9, AROCLOR 1254 (30%), Method: PREINCUBATION) was “inactive; negative”; the mutagenic call under setting [1] is “inactive; negative”; the mutagenic call (Test System: AMES SALMONELLA TYPHIMURIUM, Strain/Indicator: TA98, Metabolic Activation: RAT, LIVER, S-9, AROCLOR 1254 (10%), Method: PREINCUBATION) was “inactive; negative”; the mutagenic call (Test System: AMES SALMONELLA TYPHIMURIUM, Strain/Indicator: TA98, Metabolic Activation: RAT, LIVER, S-9, AROCLOR 1254 (30%), Method: PREINCUBATION) is “inactive; negative”; the mutagenic call (Test System: AMES SALMONELLA TYPHIMURIUM, Strain/Indicator: TA100, Metabolic Activation: HAMSTER, LIVER, S-9, AROCLOR 1254 (10%), Method: PREINCUBATION) was “inactive; negative”. Besides, the mutagenic call (Test System: AMES SALMONELLA TYPHIMURIUM, Strain/Indicator: TA100, Metabolic Activation: HAMSTER, LIVER, S-9, AROCLOR 1254 (30%), Method: PREINCUBATION) is “active; positive”; the mutagenic call under setting [2] was “inactive; negative”; the mutagenic call (Test System: AMES SALMONELLA TYPHIMURIUM, Strain/Indicator: TA100, Metabolic Activation: RAT, LIVER, S-9, AROCLOR 1254 (5%), Method: PREINCUBATION) is “inactive; negative”; the mutagenic call (Test System: AMES SALMONELLA TYPHIMURIUM, Strain/Indicator: TA100, Metabolic Activation: RAT, LIVER, S-9, AROCLOR 1254 (10%), Method: PREINCUBATION) was “inactive; negative”; the mutagenic call (Test System: AMES SALMONELLA TYPHIMURIUM, Strain/Indicator: TA100, Metabolic Activation: RAT, LIVER, S-9, AROCLOR 1254 (30%), Method: PREINCUBATION) is “inactive; negative”; the mutagenic call (Test System: AMES SALMONELLA TYPHIMURIUM, Strain/Indicator: TA1535, Metabolic Activation: HAMSTER, LIVER, S-9, AROCLOR 1254 (10%), Method: PREINCUBATION) was “inactive; negative”. In addition, the mutagenic call is “inactive; negative” under setting [3]; “inactive; negative” (Test System: AMES SALMONELLA TYPHIMURIUM, Strain/Indicator: TA1535, Metabolic Activation: RAT, LIVER, S-9, AROCLOR 1254 (10%), Method: PREINCUBATION); “inactive; negative” (Test System: AMES SALMONELLA TYPHIMURIUM, Strain/Indicator: TA1537, Metabolic Activation: HAMSTER, LIVER, S-9, AROCLOR 1254 (10%), Method: PREINCUBATION); “inactive; negative” under setting [4]; “inactive; negative” (Test System: AMES SALMONELLA TYPHIMURIUM, Strain/Indicator: TA1537, Metabolic Activation: RAT, LIVER, S-9, AROCLOR 1254 (10%), Method: PREINCUBATION).
In the case of `O=[N+]([O-])c1ccc2c(c1)-c1nc3ccccc3c3c1c-2nc1ccccc13`, the mutagenic call by setting is: (Test System: AMES SALMONELLA TYPHIMURIUM, Strain/Indicator: TA98, Metabolic Activation: NONE, Method: STANDARD PLATE) “active; positive”; (Test System: AMES SALMONELLA TYPHIMURIUM, Strain/Indicator: TA98, Metabolic Activation: RAT LIVER S-9, AROCLOR 1254, Method: STANDARD PLATE) “active; positive”; (Test System: ESCHERICHIA COLI, Strain/Indicator: WP2 UVR A, Metabolic Activation: NONE, Method: STANDARD PLATE) “inactive; negative”; (Test System: ESCHERICHIA COLI, Strain/Indicator: WP2 UVR A, Metabolic Activation: RAT LIVER S-9, AROCLOR 1254, Method: STANDARD PLATE) “inactive; negative”.
Turning to `NC1=CC(=O)C(=O)c2ccccc21`, the mutagenic call is “active; positive” (Test System: AMES SALMONELLA TYPHIMURIUM, Strain/Indicator: TA97, Metabolic Activation: NONE, Method: PREINCUBATION); “active; positive” (Test System: AMES SALMONELLA TYPHIMURIUM, Strain/Indicator: TA97, Metabolic Activation: RAT, LIVER, S-9, PHENOBARBITAL AND 5,6-BENZOFLAVONE, Method: PREINCUBATION); “inactive; negative” under setting [1]; “active; positive” (Test System: AMES SALMONELLA TYPHIMURIUM, Strain/Indicator: TA98, Metabolic Activation: RAT, LIVER, S-9, PHENOBARBITAL AND 5,6-BENZOFLAVONE, Method: PREINCUBATION); “active; positive” under setting [2]; “active; positive” (Test System: AMES SALMONELLA TYPHIMURIUM, Strain/Indicator: TA100, Metabolic Activation: RAT, LIVER, S-9, PHENOBARBITAL AND 5,6-BENZOFLAVONE, Method: PREINCUBATION). The mutagenic call runs as follows: (Test System: AMES SALMONELLA TYPHIMURIUM, Strain/Indicator: TA102, Metabolic Activation: NONE, Method: PREINCUBATION) “inactive; negative”; (Test System: AMES SALMONELLA TYPHIMURIUM, Strain/Indicator: TA102, Metabolic Activation: RAT, LIVER, S-9, PHENOBARBITAL AND 5,6-BENZOFLAVONE, Method: PREINCUBATION) “inactive; negative”; (Test System: AMES SALMONELLA TYPHIMURIUM, Strain/Indicator: TA104, Metabolic Activation: NONE, Method: PREINCUBATION) “active; positive”; (Test System: AMES SALMONELLA TYPHIMURIUM, Strain/Indicator: TA104, Metabolic Activation: RAT, LIVER, S-9, PHENOBARBITAL AND 5,6-BENZOFLAVONE, Method: PREINCUBATION) “active; positive”; under setting [3], “inactive; negative”; (Test System: AMES SALMONELLA TYPHIMURIUM, Strain/Indicator: TA1535, Metabolic Activation: RAT, LIVER, S-9, PHENOBARBITAL AND 5,6-BENZOFLAVONE, Method: PREINCUBATION) “inactive; negative”. Moreover, the mutagenic call under setting [4] is “inactive; negative”; the mutagenic call (Test System: AMES SALMONELLA TYPHIMURIUM, Strain/Indicator: TA1537, Metabolic Activation: RAT, LIVER, S-9, PHENOBARBITAL AND 5,6-BENZOFLAVONE, Method: PREINCUBATION) was “active; positive”; the mutagenic call (Test System: AMES SALMONELLA TYPHIMURIUM, Strain/Indicator: TA1538, Metabolic Activation: NONE, Method: PREINCUBATION) was “inactive; negative”; the mutagenic call (Test System: AMES SALMONELLA TYPHIMURIUM, Strain/Indicator: TA1538, Metabolic Activation: RAT, LIVER, S-9, PHENOBARBITAL AND 5,6-BENZOFLAVONE, Method: PREINCUBATION) is “inactive; negative”; the mutagenic call (Test System: AMES SALMONELLA TYPHIMURIUM, Strain/Indicator: TA2637, Metabolic Activation: NONE, Method: PREINCUBATION) is “active; positive”; the mutagenic call (Test System: AMES SALMONELLA TYPHIMURIUM, Strain/Indicator: TA2637, Metabolic Activation: RAT, LIVER, S-9, PHENOBARBITAL AND 5,6-BENZOFLAVONE, Method: PREINCUBATION) was “active; positive”.
